Results: US12216122B2, “Compositions and methods relating to detection, inhibition, and imaging of indoleamine 2,3-dioxygenase 1 (IDO1)” (Regeneron Pharmaceuticals, Inc., priority 2019, dated 2025)
Numbered stars: 1 amine (or outer) side, 2 acyl side, 3 side chain; on linkers, the order of the positions; unused ones are H or OH. Bridge positions count the residues as written; N and C are the ends. Square brackets hold non-standard residues; d marks the D form. Triazole bridges read from a SMILES are 1,4-linked. Ends that are not written are not given here. Peptide text beside a SMILES is read from it. * marks the point of attachment. ξ: configuration not given here. NH(CH2CH2O)5CH2CO = O=C(COCCOCCOCCOCCOCCN[*:1])[*:2]; Biotinyl(4ξ) = O=C1N[C@H]2CSC(CCCCC(=O)*)[C@H]2N1; Biotin = O=C1N[C@H]2[C@H](CS[C@H]2CCCCC(=O)*)N1; X1 = O=C(CSc1nonc1/C(=N/O)Nc1ccc(F)c(Br)c1)*; Trp(1-Me) = Cn1cc(C[C@H](N)C(=O)O)c2ccccc21; X5 = O=C1N[C@@H]2CSC(CCCCC(=O)*)[C@@H]2N1; PEG8 = NCCOCCOCCOCCOCCOCCOCCOCCOCCC(=O)O; Lys(N3) = [N-]=[N+]=NCCCC[C@H](N)C(=O)O; Phe(4-F) = N[C@@H](Cc1ccc(F)cc1)C(=O)O; AEEEA = NCCOCCOCCOCC(=O)O; Pra = C#CC[C@H](N)C(=O)O

How the values were obtained:
[1] = target: T1, His-tagged IDO1 human recombinant protein (Homo sapiens, UniProt P14902); assay: IDO1 ELISA (Affinity Assay): sandwich ELISA, biotinylated ligand immobilized on NEUTRAVIDIN plate; format: binding
T1 construct: purchased BPS Biosciences 71182
T1 sequence (P14902 whole entry): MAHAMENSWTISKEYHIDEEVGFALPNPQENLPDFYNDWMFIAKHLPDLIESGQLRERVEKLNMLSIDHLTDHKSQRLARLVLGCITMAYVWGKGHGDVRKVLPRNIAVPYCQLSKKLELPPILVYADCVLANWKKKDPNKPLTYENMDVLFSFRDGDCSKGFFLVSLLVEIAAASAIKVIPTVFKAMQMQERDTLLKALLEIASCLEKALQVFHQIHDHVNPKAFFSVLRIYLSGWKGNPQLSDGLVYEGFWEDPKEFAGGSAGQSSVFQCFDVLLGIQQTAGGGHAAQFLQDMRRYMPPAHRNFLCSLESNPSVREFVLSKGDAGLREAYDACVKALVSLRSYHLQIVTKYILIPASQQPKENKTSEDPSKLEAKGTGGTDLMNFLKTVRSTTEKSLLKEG
Description: Protocol: A black 96-well NEUTRAVIDIN® Coated High Binding Capacity plate (15510, Pierce) was coated with 2 μM biotinylated macrocyclic peptide ligand in TBS (25 mM Tris-HCl, 150 mM NaCl, pH 7.6) for 2 h at room temperature. The plate was aspirated and then washed with Wash Buffer (0.05% (v/v) TWEEN® 20 in PBS, 6×). His-tagged IDO1 human recombinant protein (71182, BPS Biosciences) was serially diluted in Wash Buffer (from 200 to 0 nM) and incubated in the designated microwells for 1 h at room temperature. Microwells were aspirated and subsequently washed with Wash Buffer (11×). To detect the bound IDO1 protein, Alkaline Phosphatase (AP)-conjugated Anti-6×HIS TAG® antibody [HIS-1] (ab49746, Abcam) was prepared at 1:10,000 dilution and added to the microwells for 1 h at room temperature. The plate was aspirated and washed with Wash Buffer (5×). ATTOPHOS® AP Fluorescent Substrate System (S1000, Promega) was employed to develop the microwells. Using an excitation wavelength of 430 nm, fluorescent emission at 535 nm was recorded by Beckman Coulter DTX880 photometer. Titration curves were fit using a four-parameter regression curve fitting program to determine EC50 values.
For these assays, a dilution series of His-tagged IDO1 human recombinant protein was captured using the macrocyclic peptide ligands immobilized on a NEUTRAVIDIN®-coated plate. […] The sequences of the peptide ligands are listed in Table 1, where D-amino acids are denoted in lowercase, Me-Trp=1-methyl-L-tryptophan, and F-Phe=4-fluoro-L-phenylalanine. Chemical structures are shown below Table 1.
The D-alanine substituted, biotin-PEG3-modified macrocycles were tested in the IDO1 ELISA (Affinity assay). For these assays, a dilution series of His-tagged IDO1 human recombinant protein was captured using macrocycles immobilized on a NEUTRAVIDIN®-coated plate.

recombinant human IDO1 = target: T2, recombinant human IDO1 (Homo sapiens, UniProt P14902); assay: IDO1 Fluorogenic Inhibitor Screening Assay (enzyme inhibition); format: biochemical
T2 construct: purchased BPS Biosciences 72037
T2 sequence (P14902 whole entry): as above
Description: The IDO1 Fluorogenic Inhibitor Screening Assay Kit (72037, BPS Biosciences) was used to measure the enzyme inhibition of human IDO1 in the presence of macrocyclic peptide ligands. IDO1 catalyzes the conversion of the essential amino acid L-tryptophan (L-Trp) to N-formylkynurenine (NFK). In the assay, the test inhibitor and enzyme were added to a sample containing L-Trp substrate. After incubation for 1 h at room temperature, 20 μL Fluorescence Solution was added and incubated at 37° C. for 4 h to produce a fluorescent product. Activity was measured by reading sample fluorescence at λ=510 nm following excitation of the reaction product at λ=400 nm.

NC(=O)[C@@H]1CCCCn2cc(nn2)C[C@H](NC(=O)COCCOCCOCCNC(=O)CCCC[C@@H]2SC[C@@H]3NC(=O)N[C@@H]32)C(=O)N[C@H](CO)C(=O)N[C@H](Cc2c[nH]c3ccccc23)C(=O)N[C@H](Cc2c[nH]c3ccccc23)C(=O)N[C@@H](Cc2ccc(F)cc2)C(=O)N1 [sww(F-Phe), Biotin-PEG3-Cy(sww(F-Phe))] ({Biotin-AEEEA}-[Pra][dS][dW][dW][Phe(4-F)][Lys(N3)]-NH2; triazole 1-6)
Binding to human IDO1 by ELISA, in words [1]: superior to the other 4-mers generated

PEG4
IDO1 inhibition potency relative to the small molecule (Inh) alone, in words (recombinant human IDO1): less active than the small molecule alone

CC(C)C[C@H]1NC(=O)[C@@H](NC(=O)COCCOCCOCCNC(=O)CCCCC2SC[C@H]3NC(=O)N[C@@H]23)Cc2cn(nn2)CCCC[C@@H](C(N)=O)NC(=O)[C@H](Cc2ccc(F)cc2)NC(=O)[C@H](Cc2cn(C)c3ccccc23)NC(=O)[C@@H](Cc2ccccc2)NC1=O (stereo partly drawn) [lf(Me-Trp)(F-Phe), Biotin-PEG3-Cy(lf(Me-Trp)(F-Phe))] ({X5-AEEEA}-[Pra][dL][dF][Trp(1-Me)][Phe(4-F)][Lys(N3)]-NH2; triazole 1-6)
Binding to human IDO1 by ELISA, in words [1]: slight decrease in binding affinity

CC(C)[C@H]1NC(=O)[C@@H](Cc2ccc(O)cc2)NC(=O)[C@@H](Cc2c[nH]c3ccccc23)NC(=O)[C@@H](NC(=O)COCCOCCOCCOCCOCCNC(=O)CSc2nonc2/C(=N/O)Nc2ccc(F)c(Br)c2)Cc2cn(nn2)CCCC[C@@H](C(N)=O)NC(=O)[C@@H](Cc2ccc(O)cc2)NC(=O)[C@@H](C)NC1=O [Inh-PEG5-wyvay] (X1-[NH(CH2CH2O)5CH2CO][Pra][dW][dY][dV][dA][dY][Lys(N3)]-NH2; triazole 2-8)
IDO1 inhibition potency relative to the small molecule (Inh) alone, in words (recombinant human IDO1): less active than the small molecule alone

C[C@H]1NC(=O)[C@@H](Cc2ccccc2)NC(=O)[C@@H](CCCNC(=N)N)NC(=O)[C@@H](Cc2ccccc2)NC(=O)[C@@H](NC(=O)COCCOCCOCCNC(=O)CCCCC2SC[C@@H]3NC(=O)N[C@H]23)Cc2cn(nn2)CCCC[C@@H](C(N)=O)NC(=O)[C@@H](CO)NC1=O (some centres unmarked) [frfas, Biotin-PEG3-Cy(frfas)] ({Biotinyl(4ξ)-AEEEA}-[Pra][dF][dR][dF][dA][dS][Lys(N3)]-NH2; triazole 1-7)
Binding to human IDO1 by ELISA, in words [1]: weakest binding to IDO1

N=C(N)NCCC[C@H]1NC(=O)[C@@H](Cc2ccc(O)cc2)NC(=O)[C@@H](Cc2c[nH]c3ccccc23)NC(=O)[C@@H](NC(=O)CCOCCOCCOCCOCCOCCOCCOCCOCCNC(=O)CSc2nonc2/C(=N/O)Nc2ccc(F)c(Br)c2)Cc2cn(nn2)CCCC[C@@H](C(N)=O)NC(=O)[C@@H](Cc2ccc(O)cc2)NC1=O [Inh-PEG8-wyry] ({X1-PEG8}-[Pra][dW][dY][dR][dY][Lys(N3)]-NH2; triazole 1-6)
IDO1 inhibition potency relative to the small molecule (Inh) alone, in words (recombinant human IDO1): significantly less potent than Inh alone

CC(C)[C@H]1NC(=O)[C@@H](Cc2ccc(O)cc2)NC(=O)[C@@H](Cc2c[nH]c3ccccc23)NC(=O)[C@@H](NC(=O)CNC(=O)CNC(=O)CSc2nonc2/C(=N/O)Nc2ccc(F)c(Br)c2)Cc2cn(nn2)CCCC[C@@H](C(N)=O)NC(=O)[C@@H](Cc2ccc(O)cc2)NC(=O)[C@@H](C)NC1=O [Deprotected-Inh-Gly2-wyvay] (X1-GG[Pra][dW][dY][dV][dA][dY][Lys(N3)]-NH2; triazole 3-9)
IDO1 inhibition potency relative to the small molecule (Inh) alone, in words (recombinant human IDO1): less active than the small molecule alone

nlf(Me-Trp)(F-Phe)-Ge-VHL: Epitope 2 peptide ligand linked to VHL E3 ligase ligand ([dN][dL][dF][Trp(1-Me)][Phe(4-F)]; also: Ge linker to VHL E3 ligase ligand)
EC50 ([1]; binding analysis of VHL-linked Epitope 2 ligand, read-out: EC50): 30 nM
